{"source": "patent US6855723B2", "about": "“Methods of modulating serine/threonine protein kinase function with azabenzimidazole-based compounds” (Zentaris GmbH, priority 1997, dated 2005)", "key": {"[1]": {"tested_on": "3T3/H-Ras (NIH 3T3 clone 7 cells expressing genomic fragment of oncogenic H-Ras)", "assay": "Growth of NIH 3T3 cells over expressing H-Ras (SRB)", "assay_type": "cell-based", "settings": "Mus musculus, NIH3T3, 72 h; cell growth, 2% calf serum, 3 days incubation", "description": "Assay Measuring the Effect of Azabenzimidazole-Based Compounds on the Growth of Cells Expression RAS\nThe following assay measures growth rates for NIH-3T3 cells expressing RAS. The purpose of the assay is to determine the effects of compounds on the growth of NIH 3T3 cells over expressing H-Ras.\n(§1) • 96-well flat bottom sterile plates • 96-well round bottom sterile plates • sterile 25 mL or 100 mL reservoir • pipets, multi-channel pipetman • sterile pipet tips • sterile 15 mL and 50 mL tubes Reagents • 0.4% SRB in 1% acetic acid • 10 mM Tris base • 10% TCA • 1% acetic acid • sterile DMSO (Sigma) • compound in DMSO (100 mM or less stock solution) • Trypsin-EDTA (GIBCO BRL) Cell Line • 3T3/H-Ras (NIH 3T3 clone 7 cells expressing genomic fragment of oncogenic H-Ras).\nThe cells can be constructed using the following protocol: • 1. Subclone a gene fragment encoding Ras into a commercially available vector that will stably transfect NIH-3T3 cells. The fragment is from the genomic transforming allele of cHa-ras. • 2. Transfect NIH-3T3 cells with the subcloned vector by a calcium phosphate method. Select cells expressing the Ras construct in 2% serum in DMEM. Visible foci are observed after 2 weeks. Pool the transformed cells to generate a stably transformed cell line. […]\n6. Read plates on Dynatech ELISA Plate REader at 570 nm with reference at 630 nm."}, "EGF Receptor": {"target": "T1, EGF Receptor (Homo sapiens, UniProt P00533)", "T1 construct": "expressed in transfected cells; host or cells: NIH3T3 cells (EGFR-NIH3T3)", "T1 sequence (P00533 25-1210)": "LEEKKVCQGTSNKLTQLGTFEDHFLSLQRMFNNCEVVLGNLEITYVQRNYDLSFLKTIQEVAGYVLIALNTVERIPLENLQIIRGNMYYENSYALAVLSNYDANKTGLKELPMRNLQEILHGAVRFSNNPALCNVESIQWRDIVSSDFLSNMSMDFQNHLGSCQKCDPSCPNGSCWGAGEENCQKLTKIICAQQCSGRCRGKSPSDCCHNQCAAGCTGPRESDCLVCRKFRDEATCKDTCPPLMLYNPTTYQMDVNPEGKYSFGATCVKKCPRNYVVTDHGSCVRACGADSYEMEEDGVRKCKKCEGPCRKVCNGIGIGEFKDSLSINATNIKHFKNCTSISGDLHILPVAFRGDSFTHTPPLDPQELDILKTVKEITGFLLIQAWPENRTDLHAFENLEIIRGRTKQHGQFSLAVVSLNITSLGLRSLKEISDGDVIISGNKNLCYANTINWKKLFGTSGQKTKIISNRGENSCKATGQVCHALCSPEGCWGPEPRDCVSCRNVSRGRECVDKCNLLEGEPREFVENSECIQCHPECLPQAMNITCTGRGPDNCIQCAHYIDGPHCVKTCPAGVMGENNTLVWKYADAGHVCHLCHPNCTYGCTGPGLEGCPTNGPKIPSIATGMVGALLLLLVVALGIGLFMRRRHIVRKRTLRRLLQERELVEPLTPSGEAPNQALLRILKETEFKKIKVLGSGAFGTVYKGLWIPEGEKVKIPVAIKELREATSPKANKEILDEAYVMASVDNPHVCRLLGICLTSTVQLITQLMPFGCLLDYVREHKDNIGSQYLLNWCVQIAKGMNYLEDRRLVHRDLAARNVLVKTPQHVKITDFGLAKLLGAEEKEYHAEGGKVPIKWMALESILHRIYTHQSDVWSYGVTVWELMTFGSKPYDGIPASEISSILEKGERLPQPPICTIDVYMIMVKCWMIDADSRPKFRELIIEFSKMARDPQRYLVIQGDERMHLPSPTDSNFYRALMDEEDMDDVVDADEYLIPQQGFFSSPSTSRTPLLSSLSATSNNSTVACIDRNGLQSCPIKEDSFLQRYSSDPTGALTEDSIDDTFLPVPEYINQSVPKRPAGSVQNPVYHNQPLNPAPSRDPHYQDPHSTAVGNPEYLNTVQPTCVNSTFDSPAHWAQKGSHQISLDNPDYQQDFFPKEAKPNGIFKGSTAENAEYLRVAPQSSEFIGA", "assay": "EGF receptor phosphorylation assay in whole cells (EGFR-NIH3T3 assay)", "assay_type": "cell-based", "settings": "EGF receptor kinase activity in whole cells", "description": "Assay Measuring Phosphorylating Function of EGF Receptor\nEGF Receptor kinase activity (EGFR-NIH3T3 assay) in whole cells was measured as described in detail in PCT Publication WO9640116, filed Jun. 5, 1996, by Tang et al., and entitled “Indolinone Compounds for the Treatment of Disease,” incorporated herein by reference in its entirety, including any drawings.\nThe IC50 values measured in the EGF receptor phosphorylation assay are depicted in Table 2: […]"}, "RAF-1": {"target": "T2, RAF-1 (Homo sapiens, UniProt P04049)", "T2 construct": "made in house; host or cells: Sf9 (Spodoptera frugiperda) insect cells co-infected with RAS and RAF recombinant baculoviruses", "T2 sequence (P04049 whole entry)": "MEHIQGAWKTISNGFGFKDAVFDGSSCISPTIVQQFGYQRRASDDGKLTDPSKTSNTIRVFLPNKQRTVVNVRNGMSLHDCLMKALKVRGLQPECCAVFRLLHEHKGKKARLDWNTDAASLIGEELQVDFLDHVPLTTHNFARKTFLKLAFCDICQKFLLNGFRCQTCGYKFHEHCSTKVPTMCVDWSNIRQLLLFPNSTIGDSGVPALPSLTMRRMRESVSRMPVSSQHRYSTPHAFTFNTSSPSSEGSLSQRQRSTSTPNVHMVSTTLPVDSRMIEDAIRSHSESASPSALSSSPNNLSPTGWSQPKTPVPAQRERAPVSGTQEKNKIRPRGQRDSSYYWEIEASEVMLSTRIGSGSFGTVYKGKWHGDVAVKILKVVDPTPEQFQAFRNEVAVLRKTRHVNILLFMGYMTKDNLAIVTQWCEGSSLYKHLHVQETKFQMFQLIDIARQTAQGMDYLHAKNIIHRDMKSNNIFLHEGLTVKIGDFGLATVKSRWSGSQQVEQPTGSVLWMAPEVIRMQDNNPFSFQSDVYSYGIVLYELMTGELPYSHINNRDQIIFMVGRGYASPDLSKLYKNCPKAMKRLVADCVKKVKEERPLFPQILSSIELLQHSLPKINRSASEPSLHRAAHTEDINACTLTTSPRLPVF", "assay": "RAF-1 ELISA assay (RAF-1 phosphorylation of MEK and MAPK)", "assay_type": "biochemical", "settings": "RAF-1 phosphorylation assay, lysates from RAS/RAF infected Sf9 cells, T-MEK and His-MAPK substrates", "from_the_text": "Assay Measuring Phosphorylating Function of RAF\nThe following assay reports the amount of RAF-catalyzed phosphorylation of its target protein MEK as well as MEK's target MAPK. The RAF gene sequence is described in Bonner et al., 1985, Molec. Cell. Biol. 5: 1400-1407, and is readily accessible in multiple gene sequence data banks. Construction of the nucleic acid vector and cell lines utilized for this portion of the invention are fully described in Morrison et al., 1988, Proc. Natl. Acad. Sci. USA 85: 8855-8859.\nAll of the following steps were conducted at room temperature unless specifically indicated.\n1. ELISA plate coating: ELISA wells are coated with 100 μL of Sheep anti mouse affinity purified antiserum (1 μg/100 μL coating buffer) over night at 4° C. […]\n11. […] Insert the holder into radioactive detection apparatus and quantify the radioactive phosphorous on the filter mats.\nAlternatively, 40 μL aliquots from individual wells of the assay plate can be transferred to the corresponding Positions on the phosphocellulose filter mat. […] Insert the holder into a detection device and quantify the radioactive phosphorous on the filter mats.\nIC50 values were measured according to the protocol for the following azabenzimidazole-based compounds in the RAF-1 ELISA assay: [drawing 5] […] The IC50 values measured in the RAF-1 phosphorylation assay are depicted in Table 1: […]"}, "[2]": {"tested_on": "A549 human lung carcinoma cells", "assay": "Growth of A549 cells (SRB)", "assay_type": "cell-based", "settings": "cell growth", "description": "Assay Measuring Effect of Azabenzimidazole-Based Compounds on Growth of A549 Cells\nThe following assay measures growth rates for A549 cells. The purpose of the assay is to determine the effects of compounds on the growth of A549 human lung carcinoma cells. A549 cells are readily accessible from commercial sources, such as ATCC (CCL185).\nas §1, with “tips” for “tips •”, “Line and Growth Medium” for “Line”, “A549 human lung carcinoma” for “3T3/H-Ras (NIH 3T3 clone 7”, “(ATCC CCL185) • 10% fetal calf serum in Ham's F12-K Protocol Day 0: Cell Plating This part” for “expressing genomic fragment”, “assay is carried out in a laminar flow hood.” for “oncogenic H-Ras).”\n1. Trypsinize cells. Transfer 200 μL of cell suspension to 10 mL of isotone. Count cells with a Coulter Counter.\n2. Dilute cells in growth medium to 20,000 cell/mL. Transfer 100 μL of cells to each well in a 96-well flat bottom plate to give 2000 cells/well.\n3. Use half of plate (4 rows) for each compound and quadruplicate wells for each compound concentration, and a set of 4 wells for medium control.\n4. […]\n6. Read plates on Dynatech ELISA Plate Reader at 570 nm with reference at 630 nm."}}, "note": "Like-named read-outs stand apart in the source and are kept apart here."}
{"compound": "COC(=O)Nc1nc2ccc(Oc3ccccc3)nc2[nH]1", "note": "[Compound A-3]", "values": [{"measurement": "IC50", "setting": "[1]", "result": 40, "unit": "µM"}, {"measurement": "IC50", "setting": "EGF Receptor", "result": "> 100", "unit": "µM"}, {"measurement": "IC50", "setting": "RAF-1", "result": 6.1, "unit": "µM"}, {"measurement": "melting point", "result": "> 280 °C (dec.)"}, {"measurement": "IC50", "setting": "[2]; 2% FBS, read-out: IC50 (μM) A549 (2% FBS)", "result": 65, "unit": "µM"}, {"measurement": "IC50", "setting": "[2]; 10% fetal calf serum in Ham's F12-K, read-out: IC50 (μM) A549", "result": 22, "unit": "µM"}]}
